Data as given in ChEMBL document CHEMBL1201862, “PubChem BioAssay data set” (2004).
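Dose response: 5 concentrations. Exposure: 48 h. Format: 96-well plates. Endpoint: linear interpolation; highest concentration if not reached. At the GI50, growth is halved.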 The source made the active and inactive calls. Rule as the data show it: active = GI50 up to about 1.1 µM and inactive = higher.

Columns and labels:
Assay in all cases: NCI anticancer screen, dose series, 48 h
HCT-116 = system: HCT-116
SK-MEL-2 = system: SK-MEL-2
SK-OV-3 = system: SK-OV-3
SR = system: SR
HOP-92 = system: HOP-92
SK-MEL-5 = system: SK-MEL-5
HCT-15 = system: HCT-15
HT-29 = system: HT-29
OVCAR-8 = system: OVCAR-8
OVCAR-5 = system: OVCAR-5
ACHN = system: ACHN
UACC-62 = system: UACC-62
U-251 = system: U-251
TK-10 = system: TK-10
SNB-19 = system: SNB-19

Compound	GI50 (HCT-116)	GI50 (SK-MEL-2)	GI50 (SK-OV-3)	GI50 (SR)	GI50 (HOP-92)	GI50 (SK-MEL-5)	GI50 (HCT-15) [µM]	GI50 (HT-29)	GI50 (OVCAR-8)	GI50 (OVCAR-5)	GI50 (ACHN)	GI50 (UACC-62)	GI50 (U-251)	GI50 (TK-10)	GI50 (SNB-19)
c1ccc(C2OCCO2)c(OCCOc2cc(OCCOc3ccccc3C3OCCO3)c(OCCOc3ccccc3C3OCCO3)cc2OCCOc2ccccc2C2OCCO2)c1	14.5 µM (inactive)	16.5 µM (inactive)	2.76 µM (inactive)	> 100 µM (inactive)	5.28 µM (inactive)	26.1 µM (inactive)	> 100	> 100 µM (inactive)	13.9 µM (inactive)	> 100 µM (inactive)	24.7 µM (inactive)	9.86 µM (inactive)	10.3 µM (inactive)	14.7 µM (inactive)	
NC1=NN(c2ccccc2)C(=O)C1C(=O)C(=O)Nc1ccccc1 (centres undefined)	> 100 µM (inactive)	> 100 µM (inactive)	> 100 µM (inactive)		> 100 µM (inactive)	> 100 µM (inactive)	> 100	> 100 µM (inactive)	> 100 µM (inactive)	> 100 µM (inactive)	> 100 µM (inactive)	> 100 µM (inactive)	> 100 µM (inactive)	> 100 µM (inactive)	> 100 µM (inactive)
ClC(Cl)[Si]12OCCN(CCO1)CCO2	> 100 µM (inactive)	> 100 µM (inactive)	> 100 µM (inactive)	> 100 µM (inactive)	> 100 µM (inactive)	> 100 µM (inactive)		> 100 µM (inactive)	> 100 µM (inactive)	> 100 µM (inactive)	> 100 µM (inactive)	> 100 µM (inactive)	> 100 µM (inactive)	> 100 µM (inactive)	> 100 µM (inactive)
Cc1cc2ncn(-c3nc4ccccc4nc3C(C#N)S(C)(=O)=O)c2cc1C (centres undefined)	> 100 µM (inactive)	> 100 µM (inactive)	0.946 µM (active)	> 100 µM (inactive)		> 100 µM (inactive)	> 100		> 100 µM (inactive)	> 100 µM (inactive)	> 100 µM (inactive)	> 100 µM (inactive)	> 100 µM (inactive)	> 100 µM (inactive)	> 100 µM (inactive)
O=C(O)/C(=C/c1c(O)ccc2ccccc12)c1csc(-c2nc(/C(=C\c3c(O)ccc4ccccc34)C(=O)O)cs2)n1	10.6 µM (inactive)	2.33 µM (inactive)	12.3 µM (inactive)		1.86 µM (inactive)	19.4 µM (inactive)	14.4	22.2 µM (inactive)	22.2 µM (inactive)	17.5 µM (inactive)	4.83 µM (inactive)	10.4 µM (inactive)	14 µM (inactive)	29 µM (inactive)	13.5 µM (inactive)
CCN(CC)CCCCC1CCN(CC(=O)N2c3cc(Cl)ccc3NC(=O)CC2C)CC1 (centres undefined)	> 100 µM (inactive)		> 100 µM (inactive)	74 µM (inactive)	> 100 µM (inactive)	> 100 µM (inactive)	> 100	> 100 µM (inactive)		> 100 µM (inactive)	> 100 µM (inactive)	> 100 µM (inactive)	> 100 µM (inactive)		> 100 µM (inactive)
CCN(C1=CC(=O)NC2CCCCN12)c1ccccc1 (centres undefined)	> 100 µM (inactive)	> 100 µM (inactive)	> 100 µM (inactive)			> 100 µM (inactive)	> 100	> 100 µM (inactive)	> 100 µM (inactive)	> 100 µM (inactive)	> 100 µM (inactive)	> 100 µM (inactive)	> 100 µM (inactive)	> 100 µM (inactive)	> 100 µM (inactive)
O=c1cc[nH]c2ccc3nn[nH]c3c12	> 100 µM (inactive)	> 100 µM (inactive)	> 100 µM (inactive)		> 100 µM (inactive)	> 100 µM (inactive)	> 100	> 100 µM (inactive)	> 100 µM (inactive)	> 100 µM (inactive)	> 100 µM (inactive)	> 100 µM (inactive)	> 100 µM (inactive)	> 100 µM (inactive)	> 100 µM (inactive)
COc1ccc(CC#N)c(OCc2ccccc2)c1	33.2 µM (inactive)			33.4 µM (inactive)		19.7 µM (inactive)			> 100 µM (inactive)		27 µM (inactive)	28.8 µM (inactive)			40.6 µM (inactive)
CC1=C(C(=O)Nc2c(C)cccc2C)C(c2ccccc2Cl)C(C(=O)Nc2c(C)cccc2C)=C(C)N1		> 100 µM (inactive)	> 100 µM (inactive)		> 100 µM (inactive)	> 100 µM (inactive)		> 100 µM (inactive)	> 100 µM (inactive)	> 100 µM (inactive)	> 100 µM (inactive)		> 100 µM (inactive)	> 100 µM (inactive)	> 100 µM (inactive)
Cc1ccc(C(=O)c2nnc(C(=O)c3ccc(C)cc3)nn2)cc1	57.5 µM (inactive)	38.4 µM (inactive)	19.3 µM (inactive)	5.45 µM (inactive)	32.1 µM (inactive)	50.9 µM (inactive)	76	61.9 µM (inactive)	34.9 µM (inactive)	81.1 µM (inactive)	76 µM (inactive)	36.1 µM (inactive)	40.7 µM (inactive)	78.3 µM (inactive)	41.5 µM (inactive)
COc1ccc(NC(=O)C(=O)C2CNC(=O)NC2=O)c(OC)c1 (centres undefined)	> 100 µM (inactive)	> 100 µM (inactive)	> 100 µM (inactive)	> 100 µM (inactive)	> 100 µM (inactive)	> 100 µM (inactive)	> 100	> 100 µM (inactive)	> 100 µM (inactive)	> 100 µM (inactive)	> 100 µM (inactive)	> 100 µM (inactive)	> 100 µM (inactive)	> 100 µM (inactive)	> 100 µM (inactive)
C(=N\CC/N=C/c1cccc2ccccc12)/c1cccc2ccccc12	> 100 µM (inactive)	> 100 µM (inactive)	22.1 µM (inactive)	> 100 µM (inactive)	< 0.01 µM (active)	> 100 µM (inactive)	> 100	> 100 µM (inactive)	> 100 µM (inactive)	> 100 µM (inactive)	> 100 µM (inactive)	> 100 µM (inactive)	> 100 µM (inactive)	> 100 µM (inactive)	> 100 µM (inactive)
CCN(CC)CCNC(=O)c1ccc([N+](=O)[O-])cc1OC	> 100 µM (inactive)	> 100 µM (inactive)	> 100 µM (inactive)	> 100 µM (inactive)	> 100 µM (inactive)	> 100 µM (inactive)	> 100	> 100 µM (inactive)	> 100 µM (inactive)	> 100 µM (inactive)	> 100 µM (inactive)	> 100 µM (inactive)	> 100 µM (inactive)	> 100 µM (inactive)	> 100 µM (inactive)
CCOc1ccccc1NC(=O)C1=C(C)NC(C)=C(C(=O)Nc2ccccc2OCC)C1c1ccc([N+](=O)[O-])cc1	> 100 µM (inactive)	44.3 µM (inactive)	> 100 µM (inactive)	47.6 µM (inactive)	10.5 µM (inactive)		75.3	75.5 µM (inactive)		> 100 µM (inactive)	> 100 µM (inactive)	26.1 µM (inactive)	> 100 µM (inactive)		> 100 µM (inactive)
COc1c(OC(C)=O)ccc(/C=C2\N=C(C)OC2=O)c1[N+](=O)[O-]	> 100 µM (inactive)	> 100 µM (inactive)	> 100 µM (inactive)	> 100 µM (inactive)	> 100 µM (inactive)	> 100 µM (inactive)	> 100	> 100 µM (inactive)	> 100 µM (inactive)	> 100 µM (inactive)	> 100 µM (inactive)	> 100 µM (inactive)	> 100 µM (inactive)	> 100 µM (inactive)	> 100 µM (inactive)
CC(=O)C1=CCC2c3[nH]c4ccccc4c3CCN2C1 (centres undefined)	45 µM (inactive)	66.4 µM (inactive)	21.6 µM (inactive)	31.8 µM (inactive)	36.3 µM (inactive)	50 µM (inactive)	50.8	31.3 µM (inactive)	47.6 µM (inactive)	> 100 µM (inactive)	78 µM (inactive)		54.5 µM (inactive)	> 100 µM (inactive)	> 100 µM (inactive)
COc1ccc2[nH]c(=O)cc(C)c2c1[N+](=O)[O-]	> 100 µM (inactive)	> 100 µM (inactive)	> 100 µM (inactive)		32.4 µM (inactive)	> 100 µM (inactive)	> 100	> 100 µM (inactive)	> 100 µM (inactive)	> 100 µM (inactive)	> 100 µM (inactive)	> 100 µM (inactive)	> 100 µM (inactive)	> 100 µM (inactive)	> 100 µM (inactive)
C=CCC1OC(C)(C)Oc2ccc(OCOCCOC)cc21 (centres undefined)	> 100 µM (inactive)	> 100 µM (inactive)	> 100 µM (inactive)		> 100 µM (inactive)	> 100 µM (inactive)	> 100	> 100 µM (inactive)	> 100 µM (inactive)	> 100 µM (inactive)	> 100 µM (inactive)	> 100 µM (inactive)	> 100 µM (inactive)	> 100 µM (inactive)	> 100 µM (inactive)
C[C@H](OCc1ccccc1)C(=O)N1CCS(=O)(=O)N2CCC[C@@H]2C1=O	> 100 µM (inactive)		> 100 µM (inactive)	> 100 µM (inactive)	> 100 µM (inactive)	> 100 µM (inactive)	> 100	> 100 µM (inactive)	> 100 µM (inactive)	> 100 µM (inactive)	> 100 µM (inactive)	> 100 µM (inactive)	> 100 µM (inactive)	> 100 µM (inactive)	> 100 µM (inactive)
